This note sets out measurements from patent US7871635B2, “Use of compound that inactivates protein kinase A in a composition containing a cosmetically acceptable medium for lightening the skin” (Societe d'Exploitation de Produits pour les Industries …, priority 2002, dated 2011).

This test deals with B16/F1 melanocyte cultures. Description: Extracellular melanin content in B16/F1 melanocyte cultures. The class given is cell-based, mouse. The note with it: 72 hours; for Extracellular melanin: control 43 ± 11 μg/ml. On the procedure: Mouse melanocytes of the B16/F1 line are inoculated in 96-well culture plates at a density of 1500 cells/well. […] The cells are used at 60% of confluence, i.e. 4 days after inoculation. The MCM medium has the following composition: […] N-Undecylenoylphenylalanine is diluted to 4 mg/ml in decinormal aqueous sodium hydroxide solution. It is tested at 40 μg/ml in the MCM medium. Sodium hydroxide has no effect on the parameters analyzed. […] Given its toxicity, it is not tested at 40 μg/ml. […] Control cultures are incubated, in the absence of product, in the MCM medium. These control cultures are prepared on each culture plate. Each test is performed six times. After incubation for 72 hours, the incubation media of the cells (n=6) are taken up and stored at -80° C. until the time of evaluation of the effects. The extracellular melanin is quantified by spectrophotometry at 450 nm. A melanin calibration range is prepared in parallel. The results are expressed as μg/ml of extracellular […] a percentage of inhibition relative to the control group.

[1] abbreviates: Mus musculus, B16-F1, at 40 μg/ml, read-out: Inhibition of extracellular melanin production.

Regarding `Oc1ccc(O)cc1` [Hydroquinone, hydroquinone], for the setting “Mus musculus, B16-F1, at 5 μg/ml, read-out: Inhibition of extracellular melanin production”, the inhibition (in general, the change of the read-out against control, counted positive when it falls) at 5 µg/mL turned out to be 85%. Moreover, for the setting “at 5 μg/ml”, the Extracellular melanin turned out to be 7 ± 1 µg/mL.

`C=CCCCCCCCCC(=O)NC(Cc1ccccc1)C(=O)O` (centres unmarked) [N-Undecylenoylphenylalanine, N-(ω-undecylenoyl)phenylalanine]: under setting [1], the inhibition at 40 µg/mL turned out to be 72%. This compound also displayed an Extracellular melanin (at 40 μg/ml) of 12 ± 1 µg/mL.

Regarding `OC[C@H]1O[C@@H](Oc2ccc(O)cc2)[C@H](O)[C@@H](O)[C@@H]1O` [Arbutin, arbutin], the inhibition at 40 µg/mL under setting [1] is 47%. The Extracellular melanin (at 40 μg/ml) came out at 23 ± 6 µg/mL.

Turning to `O=c1cc(CO)occ1O` [Kojic acid, kojic acid], under setting [1], the inhibition at 40 µg/mL stood at 70%. For the setting “at 40 μg/ml”, the Extracellular melanin was determined as 13 ± 2 µg/mL.
